Values quoted from earlier work, collected in patent US12295958B2, “Ready-to-use injectable formulations” (Zoetis Services LLC, priority 2019, dated 2025).
Counter-ions that a name gives are not always drawn. Like-named read-outs stand apart in the source and are kept apart here.

Legend:
[1] = clinical studies
S. intermedius = settings: dogs, single injection, S. intermedius infections
S. canis = settings: dogs, single injection, S. canis infections
Pasteurella multocide = settings: cats, single injection, Pasteurella multocide infections

Compound | clinical equivalence of a single injection [1] | time therapeutic drug concentrations are maintained (S. intermedius) | time therapeutic drug concentrations are maintained (S. canis) | time therapeutic dose concentrations are provided (Pasteurella multocide) | caking after transport (0.15% Tween and ethyl oleate, glass bottles, transported by road (about 2 hours) and air (about 1 hour)) | caking (PVP K30 in addition with 0.5% Tween 80) | caking (addition of 0.5% Tween) | caking (addition of 0.5% polyethylene glycol-12-oleate) | resuspendability (ethyl oleate suspension without Tween 80) | resuspendability (ethyl oleate, 0.15% Tween 80 as flocculating agent) | dispersability of sediment (increasing concentrations of phospholipids (Lipoid S100), suspensions containing PEG-12-oleate) | caking on vibration (long chain fatty acid mixture with addition of phospholipid) | redispersion after vibration (suspension in mixture of long chain saturated and unsaturated fatty acids) | redispersion after vibration (suspensions in Miglyol 840 and Miglyol 812)
CO/N=C(\C(=O)N[C@@H]1C(=O)N2C(C(=O)O)=C([C@@H]3CCCO3)CS[C@H]12)c1csc(N)n1 [Convenia, (6R,7R)-7-[[(2Z)-(2-amino-4-thiazolyl)(methoxyimino)acetyl]amino]-8-oxo-3-[(2S)-tetrahydro-2-furanyl]-5-thia-1-azabicyclo[4.2.0]oct-2-ene-2-carboxylic acid, monosodium salt] | clinically equivalent to a 14-day oral antibiotic regimen | approximately 7 days | about 14 days | approximately 7 days |  |  |  |  |  |  |  |  |  | 
CCN(CC)CCOC(=O)[C@@H]1N2C(=O)[C@@H](NC(=O)Cc3ccccc3)[C@H]2SC1(C)C [penethamate] |  |  |  |  | “rock solid” cake | did not solve the caking problem | hard cake | prevented caking | required vigorous shaking and vortexing to disperse the cake | good resuspendability | less dispersable sediments | caking on vibration | dispersed readily | difficult to redisperse after vibration
